Structure (SMILES) | melting point [°C]
O=C(O)CCCc1cc2nc(Cl)ccc2n1S(=O)(=O)c1ccc2ncsc2c1 | 178
CCCN(C(N)=S)c1ccc(Cl)cc1Cl | 121
Cc1cc(C#N)c(S(C)(=O)=O)cc1C(=O)O | 248 to 249
O=C(CCC1CCCC1)Nc1ccc(N2CCC(NC[C@H](O)COc3cccc4[nH]c(=O)[nH]c34)CC2)cc1 | 140 to 144
C[Si](C)(C)CCSCCCNC(=O)n1cc(F)c(=O)[nH]c1=O | 114 to 115
CCNC(=O)CCC(=O)c1cnc2c(OC)cccc2c1Nc1ccccc1C | 88.5 to 90
Cn1c(COc2ccc(CC3SC(=O)NC3=O)cc2)nc2cnccc21 (stereo not drawn) | 264 to 265
O=C(O)c1ccc2c([N+](=O)[O-])c(O)c(O)cc2c1 | > 310
CCOC(=O)c1ccc(NC=Nc2ccc3[nH]cc(CCN4C(=O)c5ccccc5C4=O)c3c2)cc1 | 110
CCc1cc(C(=O)c2ccccc2)c(O)cc1OCCCCC#N | 42 to 44
CCOC(=O)C(=O)Nc1ncccn1 | 96 to 99
c1ccc(CN2CCC(Nc3cccnc3)CC2)cc1 | 131 to 133
CCCc1c(O)ccc2c(=O)cc(/C=C/C(=O)OCC)oc12 | 203 to 204
O=C(O)C=C(C(=O)c1ccc(Cl)c(Cl)c1)c1ccccc1 | 101 to 103
Cc1ccc(N(c2ccc(C)cc2)c2ccc(-c3ccc(N(c4ccc(C)cc4)c4ccc(C)cc4)cc3)cc2)cc1 | 215 to 216
COc1cc(C(C)=O)ccc1OC/C=C/CBr | 71 to 72
Cc1ccc(-c2ccccc2C(=O)Nc2ccc(C(=O)N3C[C@H]4CCCN4c4ccccc43)cc2)cc1 | 228 to 230
CC(CC(C)(C)c1ccccc1)N=C(O)C(Cl)=C(Cl)C(=O)O (stereo not drawn) | 106 to 109
CC(=O)Oc1cc(OC(C)=O)c2ccc(=O)[nH]c2c1 | 230 to 232
CCCOc1ccc2c(c1)C(=O)c1cccc(OC)c1-2 | 96 to 97
CCc1nc2c(o1)C(=O)C=C(Nc1ccc(F)cc1)C2=O | 232
CC(C)COc1ccccc1-c1ncc(-c2nnn[nH]2)c(=O)[nH]1 | 230 to 231
COc1ccc2c(c1)CC(NCC(=O)O)CC2 (stereo not drawn) | 203
CCOC(=O)N1CCCOc2cc(N)ccc21 | 140 to 143
N#CCc1ccc(N)c2[nH]ncc12 | 164 to 165
O=C(Nc1ccc(S(=O)(=O)c2ccc([N+](=O)[O-])cc2)cc1)N[C@@H](Cc1ccc(NC(=O)c2c(Cl)cccc2Cl)cc1)C(=O)O | 223

Structure (SMILES) | melting point [°C]
Cn1ccc(NC(=O)Nc2cccc3c2C2CC4(CCN2C3=O)SCCS4)n1 (stereo not drawn) | 135
CCCCCCCc1ccc([C@H]2CC[C@H](O)CC2)cc1 | 80.2 to 82.5
O=C(NCc1ccccn1)c1cc(OCC(F)(F)F)ccc1OCc1ccccc1 | 115 to 116
CC(C)(C)OC(=O)N1CCC2(CC1)CSC1=C(O2)c2cc(-c3ccccc3C(F)(F)F)ccc2C(=O)C1=O | 223 to 225
COc1cccc(NC(=O)NC(C(C)C)C2CCN(Cc3ccc(Cl)c(Cl)c3)CC2)c1 (racemic) | 161 to 162
CCCCCN1C(=O)C(=O)c2ccccc21 | 50 to 51
COc1ccc(S(=O)(=O)c2ccc(NC(=O)NC34CC5CC(CC(C5)C3)C4)cc2)nn1 | 252 to 254
CC(C)(C)c1ccc(C(=O)O)c(C(=O)O)c1 | 148 to 150
Fc1cccc(F)c1C(C1=NOCCO1)N1CCc2sccc2C1 (stereo not drawn) | 151 to 153
CC1(C)OC(C=Cc2cccc(C#N)c2)=CC1=O | 155 to 157
NC(=O)c1cc2c(Oc3ccc(C(=O)N4CCOCC4)cc3)cncc2s1 | > 260
Clc1cc(NCCc2ccccc2)c2ccccc2n1 | 132 to 133
COCc1c(S(C)(=O)=O)ccc(C(=O)C2C(=O)CCCC2=O)c1C | 192 to 198
CCc1ccc2c(c1)C(C(=O)O)c1ccccc1CO2 (stereo not drawn) | 154 to 155
COC(=O)[C@H]1Cc2c([nH]c3ccccc23)[C@@H](c2ccc3c(c2)OCO3)N1 | 154 to 155
COc1ccc(C2(CCN3CCC(C(=O)c4nc5ccccc5s4)CC3)CCN(C(=O)c3ccccc3)C2)cc1OC (stereo not drawn) | 74 to 76
CC(=O)Nc1cnc(-c2ccccc2)nc1NCC(=O)N(C)c1ccccc1 | 200 to 201
Cc1nc(-c2ccccc2)nc(-c2cccc([N+](=O)[O-])c2)c1CO | 177 to 178
CCCCOCCOc1ccc(-c2ccc3c(c2)C=C(C(=O)Nc2ccc(S(=O)Cc4ncnn4C)cc2)CCN3CC(C)C)cc1 (stereo not drawn) | 135 to 138
CC(C)c1ncc(CCCOc2nn(Cc3ccccc3)cc2CC(=O)O)c(Oc2ccc(Cl)cc2Cl)n1 | 98 to 99
CCOC(=O)C1=C(C)NC(COC(N)=O)=C(C(=O)OCC)C1c1ccccc1[N+](=O)[O-] (stereo not drawn) | 128 to 132
CCOC(=O)c1ncc2[nH]c3ccc(C4CCCCC4)cc3c2c1COC | 254 to 266
N#Cc1ccc(CBr)c(Cl)c1 | 83 to 85
Cc1nn(C)c2nc(N)c(-c3cccc(Cl)c3)nc12 | 224 to 226
COc1ccccc1CNc1ccc2cc(Nc3nc(C)no3)ccc2n1 | 175
c1ccc2cc(CN3CCN(c4nccs4)CC3)ccc2c1 | 83 to 84

Structure (SMILES) | melting point [°C]
O=C1C2=C(NCCC2)N(c2ccccc2)C2=NCCN12 | 248 to 250
Cc1ccc(-c2nnc(N3CCC(=O)CC3)nc2-c2ccc(C)cc2)cc1 | 197 to 199
Nc1sc2c(c1C(=O)c1ccc(Cl)s1)CCN(Cc1ccccc1)C2 | 81 to 83
CCOC(=O)CS(=O)(=O)c1cc(NS(=O)(=O)c2cccs2)c2ccccc2c1O | 154 to 156
CC(C)c1c(CO)n(-c2ccc(F)cc2)c(=O)c2ccccc12 | 157 to 158
CC1(C)Cc2cc(OCC(=O)O)c(Cl)c(Cl)c2C1=O | 182
N#Cc1c(N2CCc3ccccc3CC2)nc(NCCOc2ccccc2)[nH]c1=O | > 200
CN1CCC(c2ccccc2)(C(C)(C)O)CC1 | 146 to 147
O=C(O)C(O)=CC(=O)c1cc(Cc2ccccc2)cn(Cc2ccccc2)c1=O | 158 to 159
CC(C)(C)NC(=O)N1CCn2c(c(C(N)=O)c(Br)c2C2CC2)C1 | 204 to 208
C#CC1(O)C(C)CC2(CC1(C)C)OC(C)C(C)O2 (stereo not drawn) | 79 to 83
Nc1cc2c(Nc3ccc(Cl)c(Br)c3)ncnc2cn1 | 271 to 274
Cc1ccc(C(N)=O)cc1Br | 178 to 179
Cc1cc(I)cc(C=O)c1N | 134
O=C1Cc2cccc(Oc3ccccc3F)c2O1 | 82 to 84
Cc1cc(C)cc(-c2cc(C)cn2-c2ccc(S(N)(=O)=O)cc2)c1 | 163 to 166
CCCCC1=NC(=NOC(=O)NC)SC1(C)C | 128 to 130
Cc1nc(N2CCN(Cc3ccccc3)C2=O)sc1C(=O)NCc1ccccn1 | 149 to 151
Cc1c(O)cccc1OCc1ccccc1 | 58 to 59
c1ccc(-c2cnc3c(c2)nnc2cncn23)cc1 | 225 to 227
COC(=O)c1ccc(OCC2CN(c3ccc(N)cc3)C(=O)O2)cc1 (stereo not drawn) | 139 to 142
O=C(O)CC(CCc1ccc(O)cc1)CC(=O)O | 142 to 144
N#Cc1ccc(CCC(=O)c2c(O)c3cccnc3n(-c3ccccc3)c2=O)cc1 | 248 to 249
Brc1nnc2n1C=Cc1ccccc1C2 | 169 to 170
Cc1ccccc1-c1cn(-c2ccccc2)c2ncnc(N)c12 | 181 to 182
CCCCCCCCOc1cc2cc(C(=O)OC)c(C(=O)OC)c(-c3ccncc3)c2cc1OC | 124 to 126

Structure (SMILES) | melting point [°C]
COc1ccc(Br)c2c1C[C@H](N(Cc1ccccc1)Cc1ccccc1)CC2 | 100 to 101
CCc1cc2c(cc1O)C(C)(C)CCC2(C)C | 88 to 89
O=C(O)Cc1ccc(NC(=O)C(COc2ccc(Cl)cc2)NS(=O)(=O)c2ccc(Br)cc2)cc1 (racemic) | 218 to 220
CC(=O)c1c(Cl)cc(Cl)cc1OCC(=O)O | 110
CC(=Cc1ccc(F)cc1F)C(=O)O | 126 to 128
COc1ccccc1C1CSc2ccccc2NC1=O (stereo not drawn) | 219
CC12C=CCC1C1CC(O)c3cc(O)ccc3C1CC2 (stereo not drawn) | 150 to 157
C=CCNc1nc(N)nc(-c2ccccc2)c1-c1ccc(=O)n(C(C)C)n1 | 192
O=c1cc(-c2ccc(O)c(Cl)c2)oc2ncccc12 | 259 to 262
CC(C)CON=Cc1ccc2c(c1)c1cc(-c3ccc(Cl)cc3Cl)c(=O)n(C)c1n2C | 100 to 110
CCc1nc(C)[nH]c1Sc1ccccc1 | 171
CC(C)(C)c1ccc2c(c1)[C@H]1Cc3ccccc3[C@H]1N2 (relative stereo) | 103 to 105
Cc1c(N2CCC(N(C)C)C(C)C2)c(F)cc2c(=O)c(C(=O)O)cn(C3CC3)c12 (stereo not drawn) | 221
Cc1onc2c1N(CCCOc1ccccc1)C(=O)COC2(C)c1ccccc1 (stereo not drawn) | 118 to 120
OC[C@@H]1CC[C@H]2CN(c3ncccn3)CCN2C1 (relative stereo) | 135 to 136
CN(C)S(=O)(=O)c1ccc2c(c1)C(Cl)c1ccccc1C=C2 (stereo not drawn) | 140 to 144
Cc1ncoc1CN1CCc2c(c3cccc(F)c3n2C)C1=O | 158 to 161
COC(=O)CS(=O)(=O)NOC[C@@H]1NC(=O)[C@@H]1NC(=O)OC(C)(C)C (relative stereo) | 128 to 129
O=C(c1ccc(O)cc1)c1ccc([N+](=O)[O-])cc1 | 196
CC(C)(CS(C)(=O)=O)NC(=O)c1c(NC(=O)c2cc(C(F)(F)F)nn2-c2ncccc2Cl)c(Cl)cc2cn[nH]c12 | 173 to 176
CCc1noc(-c2ncc3[nH]c4ccccc4c3n2)n1 | 250 to 257
CC(C)(C)c1cc(C=C2SC(NC#N)=NC2=O)cc(C(C)(C)C)c1O | 240 to 242
N#CCC(CC#N)c1ccccc1Br | 94 to 96
CC(=O)SCC(=O)Nc1ccc(C(=O)NCCO)cc1 | 190 to 192
Cc1c(SCc2ccco2)ccnc1CO | 60 to 62

From a melting point compilation (Tetko et al.; mined from patent text by program, amines drawn as free bases though some values may be those of a salt)
